The source of these data is patent publication US11713309B2, “Solid forms of Cerdulatinib” (Alexion Pharmaceuticals, Inc., priority 2018, dated 2023).

Counter-ions that a name gives are not always drawn. Where only a bound is given, the exact number is not on record here.

Assay type in all cases: physicochemical
A short description of series [1]: Thermodynamic pH-solubility profile. To be noted: 7 days of shaking, about 37° C. water bath. From the text:
A thermodynamic pH-solubility profile of Compound I HCl Form I in various buffer or non-buffer solutions is further provided in FIG. 61. FIG. 61 additionally includes the thermodynamic pH-solubility profile of Compound I free base. It is of note that no data is shown in the profile of Compound I free base below a pH of about 2.0, as Compound I free base converted to Compound I HCl Form I below a pH of about 2.0. Similarly, no data is shown in the profile of Compound I HCl Form I above a pH of about 3.0, as Compound I HCl Form I converted to Compound I free base above a pH of about 3.0.

Series [2] in a line: Gravimetric vapor sorption (GVS) hygroscopicity. To be noted: for GVS weight gain / total weight uptake: at/after about 70% RH, 25° C. The method, then: Sorption isotherms were obtained using a Hiden Isochema moisture sorption analyser (model IGAsorp), controlled by IGAsorp Systems Software v6.50.48. The sample was maintained at a constant temperature (25° C.) by the instrument controls. The humidity was controlled by mixing streams of dry and wet nitrogen, with a total flow of 250 mL·min^−1. The instrument was verified for relative humidity content by measuring three calibrated Rotronic salt solutions (10-50-88%). The weight change of the sample was monitored as a function of humidity by a microbalance (accuracy+/−0.005 mg). A defined amount of sample was placed in a tared mesh stainless steel basket under ambient conditions. A full experimental cycle consisted of two scans (sorption and desorption) at a constant temperature (25° C.) and 10% RH intervals over a 10-90% range (90 minutes for each humidity level).
The hygroscopicity of the esylate, mesylate, HCl, and sulfate salts/co-crystals of Compound I formed via the first scale up process was analyzed. All hygroscopicity experiments covered a wide range of humidity (0 to about 90% relative humidity) and were performed at about 25° C. to assess behavior.

The nature of series [3]: Kinetic solubility in SGF. To be noted: listed as HC1 salt Form I.

In the case of `CCS(=O)(=O)N1CCN(c2ccc(Nc3ncc(C(N)=O)c(NC4CC4)n3)cc2)CC1` [Compound I HCl Form I, 4-(cyclopropylamino)-2-(4-(4-(ethylsulfonyl)piperazin-1-yl)phenylamino)pyrimidine-5-carboxamide], in series [1], the “pH range in which Compound I HCl Form I converted to Compound I free base” value is more than 3.0. The “GVS weight gain / total weight uptake” value in series [2] is “about 5.9%”; in series [2] (listed as Comp. I HCl (aq., 1:2) Form I), “About 5.9%”. In addition, in series [2] (exposure to humidity 0 to about 90% RH, about 25° C.), the “Crystalline form by XRPD post GVS analysis” value was “does not result in a form change”. Besides, in series [2] (kept under about 100% dry atmosphere), the GVS mass lost result was “about 0.5%”. The GVS weight variation result in series [2] (up to about 70% RH) is “does not vary significantly”. Further, in series [3] (SGF, 37° C., 1 h, drug loading ~10 mg/mL as freebase), the “Solubility (mg/mL) 1 h” value is 0.041 mg/mL. Further, in series [3] (SGF, 37° C., 2 h), the “Solubility (mg/mL) 2 h” value stood at 0.039 mg/mL. In addition, the “Solubility (mg/mL) 4 h” value in series [3] (SGF, 37° C., 4 h) came out at 0.036 mg/mL. Moreover, in series [3] (SGF, 37° C., 24 h), the “Solubility (mg/mL) 24 h” value is given as 0.035 mg/mL. Also, the “Final Form” value in series [3] (XRPD of residual solids, SGF, 1 h, 2 h, 4 h, 24 h) is recorded as “HC1 salt Form I”. Further, the “pH 1 h” value in series [3] (supernatant, SGF (native pH 1.8), 1 h) is 1.9. In series [3] (supernatant, SGF (native pH 1.8), 2 h), the “pH 2 h” value turned out to be 1.9. For the same compound, the “pH 4 h” value in series [3] (supernatant, SGF (native pH 1.8), 4 h) turned out to be 2.0. The “pH 24 h” value in series [3] (supernatant, SGF (native pH 1.8), 24 h) came out at 2.0.
